Reference: ChEMBL document CHEMBL5291721, “A preclinical secondary pharmacology resource illuminates target-adverse drug reaction associations of marketed drugs” (Nat Commun, 2023)

Legend:
[1] = biological target: Sodium-dependent dopamine transporter (Homo sapiens, UniProt Q01959)
[2] = biological target: 5-hydroxytryptamine receptor 2B (Homo sapiens, UniProt P41595); format: functional, cell-based
[3] = biological target: Neuronal acetylcholine receptor subunit alpha-4 (Homo sapiens, UniProt P43681)
[4] = biological target: T1, Equilibrative nucleoside transporter 1 (Homo sapiens, UniProt Q99808)
T1 sequence (Q99808 whole entry): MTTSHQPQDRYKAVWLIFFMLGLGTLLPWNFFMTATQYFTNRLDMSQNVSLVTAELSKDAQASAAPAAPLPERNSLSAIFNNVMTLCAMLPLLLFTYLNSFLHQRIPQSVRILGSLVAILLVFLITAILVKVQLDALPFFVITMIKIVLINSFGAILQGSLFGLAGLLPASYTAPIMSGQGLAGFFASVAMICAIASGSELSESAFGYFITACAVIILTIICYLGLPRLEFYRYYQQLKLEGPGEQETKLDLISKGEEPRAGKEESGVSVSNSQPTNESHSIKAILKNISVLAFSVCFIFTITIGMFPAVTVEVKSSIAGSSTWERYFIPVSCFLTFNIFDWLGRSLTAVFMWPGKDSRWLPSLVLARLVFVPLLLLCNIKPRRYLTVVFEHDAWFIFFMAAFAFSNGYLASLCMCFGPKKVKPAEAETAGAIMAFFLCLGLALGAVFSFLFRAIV

Bile salt export pump = Bile salt export pump (Homo sapiens, UniProt O95342); format: functional
[5] = biological target: Sodium-dependent noradrenaline transporter (Homo sapiens, UniProt P23975)
[6] = biological target: T2, 5-hydroxytryptamine receptor 3A (Homo sapiens, UniProt P46098); format: functional
T2 sequence (P46098 whole entry): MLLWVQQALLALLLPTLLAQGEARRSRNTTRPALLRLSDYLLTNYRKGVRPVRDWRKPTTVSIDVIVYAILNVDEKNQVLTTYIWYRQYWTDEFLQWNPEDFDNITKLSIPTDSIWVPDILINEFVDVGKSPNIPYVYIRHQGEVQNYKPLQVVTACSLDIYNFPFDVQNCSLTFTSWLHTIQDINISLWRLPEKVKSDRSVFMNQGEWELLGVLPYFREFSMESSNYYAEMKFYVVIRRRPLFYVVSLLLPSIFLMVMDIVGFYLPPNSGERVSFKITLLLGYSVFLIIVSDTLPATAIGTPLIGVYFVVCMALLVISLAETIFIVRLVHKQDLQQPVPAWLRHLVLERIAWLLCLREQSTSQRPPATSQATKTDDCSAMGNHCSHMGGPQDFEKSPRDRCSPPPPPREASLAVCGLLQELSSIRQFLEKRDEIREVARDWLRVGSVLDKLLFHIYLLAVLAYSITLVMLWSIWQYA

[7] = biological target: Beta-1 adrenergic receptor (Homo sapiens, UniProt P08588); format: functional
[8] = biological target: T3, Cholecystokinin receptor type A (Homo sapiens, UniProt P32238)
T3 sequence (P32238 whole entry): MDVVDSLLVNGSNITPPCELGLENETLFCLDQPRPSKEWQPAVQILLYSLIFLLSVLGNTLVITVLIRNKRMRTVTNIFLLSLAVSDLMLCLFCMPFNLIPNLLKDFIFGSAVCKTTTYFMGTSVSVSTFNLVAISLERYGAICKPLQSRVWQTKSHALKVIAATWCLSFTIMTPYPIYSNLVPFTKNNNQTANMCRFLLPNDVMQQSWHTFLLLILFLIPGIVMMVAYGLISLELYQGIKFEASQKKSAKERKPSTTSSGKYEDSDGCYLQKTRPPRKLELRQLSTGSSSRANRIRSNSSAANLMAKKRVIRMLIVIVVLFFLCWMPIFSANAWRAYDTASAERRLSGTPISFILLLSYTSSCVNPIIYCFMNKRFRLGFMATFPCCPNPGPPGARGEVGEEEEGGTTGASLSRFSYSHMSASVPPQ

D(3) dopamine receptor = D(3) dopamine receptor (Homo sapiens, UniProt P35462)
[9] = biological target: T4, Alpha-2C adrenergic receptor (Homo sapiens, UniProt P18825); format: functional
T4 sequence (P18825 whole entry): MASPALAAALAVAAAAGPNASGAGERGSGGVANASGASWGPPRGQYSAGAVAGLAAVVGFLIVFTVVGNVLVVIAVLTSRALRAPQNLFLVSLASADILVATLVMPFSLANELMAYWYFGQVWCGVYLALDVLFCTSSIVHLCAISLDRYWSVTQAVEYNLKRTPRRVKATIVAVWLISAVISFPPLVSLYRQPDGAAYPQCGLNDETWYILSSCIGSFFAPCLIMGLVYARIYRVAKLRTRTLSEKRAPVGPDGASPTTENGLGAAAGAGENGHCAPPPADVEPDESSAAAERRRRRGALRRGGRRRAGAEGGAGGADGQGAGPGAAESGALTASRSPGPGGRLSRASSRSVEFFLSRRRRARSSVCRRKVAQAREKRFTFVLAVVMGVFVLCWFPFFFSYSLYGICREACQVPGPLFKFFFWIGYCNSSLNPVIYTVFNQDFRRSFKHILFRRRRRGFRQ

[10] = biological target: T5, Muscarinic acetylcholine receptor M2 (Homo sapiens, UniProt P08172); format: functional, cell-based
T5 sequence (P08172 whole entry): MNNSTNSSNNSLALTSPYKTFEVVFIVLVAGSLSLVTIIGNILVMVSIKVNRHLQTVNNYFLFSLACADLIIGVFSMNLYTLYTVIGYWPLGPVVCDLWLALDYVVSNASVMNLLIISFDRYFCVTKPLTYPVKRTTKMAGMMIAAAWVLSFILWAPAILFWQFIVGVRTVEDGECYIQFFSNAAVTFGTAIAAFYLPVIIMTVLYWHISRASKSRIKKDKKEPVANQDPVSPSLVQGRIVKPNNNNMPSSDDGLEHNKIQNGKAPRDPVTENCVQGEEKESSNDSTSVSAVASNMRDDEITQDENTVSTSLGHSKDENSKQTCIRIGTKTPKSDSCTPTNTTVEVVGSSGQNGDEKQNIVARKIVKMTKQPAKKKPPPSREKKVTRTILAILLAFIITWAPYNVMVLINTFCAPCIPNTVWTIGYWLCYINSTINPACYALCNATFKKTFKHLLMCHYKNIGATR
Further: assay procedure not described here.

Sequence of D(3) dopamine receptor (P35462 whole entry): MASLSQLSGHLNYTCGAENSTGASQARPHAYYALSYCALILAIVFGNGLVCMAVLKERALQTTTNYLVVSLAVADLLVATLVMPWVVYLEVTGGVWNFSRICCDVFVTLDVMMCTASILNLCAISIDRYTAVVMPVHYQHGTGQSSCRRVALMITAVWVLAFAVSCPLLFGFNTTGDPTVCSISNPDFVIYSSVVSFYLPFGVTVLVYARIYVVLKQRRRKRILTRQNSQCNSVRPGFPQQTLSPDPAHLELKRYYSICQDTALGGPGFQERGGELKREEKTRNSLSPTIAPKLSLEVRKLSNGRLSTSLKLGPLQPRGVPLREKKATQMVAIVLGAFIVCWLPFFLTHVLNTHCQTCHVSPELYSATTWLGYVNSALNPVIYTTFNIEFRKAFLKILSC
Sequence of Neuronal acetylcholine receptor subunit alpha-4 (P43681 whole entry): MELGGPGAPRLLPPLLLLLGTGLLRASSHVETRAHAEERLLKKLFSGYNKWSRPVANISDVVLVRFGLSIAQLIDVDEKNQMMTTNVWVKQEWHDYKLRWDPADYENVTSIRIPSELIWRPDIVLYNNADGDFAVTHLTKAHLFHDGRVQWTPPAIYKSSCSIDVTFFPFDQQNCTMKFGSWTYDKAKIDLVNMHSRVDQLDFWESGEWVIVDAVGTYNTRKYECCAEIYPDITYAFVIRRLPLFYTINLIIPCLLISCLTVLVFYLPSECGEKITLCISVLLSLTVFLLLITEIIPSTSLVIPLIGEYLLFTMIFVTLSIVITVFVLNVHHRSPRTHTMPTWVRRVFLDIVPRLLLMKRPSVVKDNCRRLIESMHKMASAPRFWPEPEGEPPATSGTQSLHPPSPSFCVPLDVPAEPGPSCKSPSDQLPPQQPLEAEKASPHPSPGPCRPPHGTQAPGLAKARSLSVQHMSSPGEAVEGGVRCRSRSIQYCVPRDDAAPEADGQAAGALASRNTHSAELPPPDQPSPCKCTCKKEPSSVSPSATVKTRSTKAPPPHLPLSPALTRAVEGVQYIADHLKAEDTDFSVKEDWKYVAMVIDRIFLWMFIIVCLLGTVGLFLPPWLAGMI
Sequence of Sodium-dependent dopamine transporter (Q01959 whole entry): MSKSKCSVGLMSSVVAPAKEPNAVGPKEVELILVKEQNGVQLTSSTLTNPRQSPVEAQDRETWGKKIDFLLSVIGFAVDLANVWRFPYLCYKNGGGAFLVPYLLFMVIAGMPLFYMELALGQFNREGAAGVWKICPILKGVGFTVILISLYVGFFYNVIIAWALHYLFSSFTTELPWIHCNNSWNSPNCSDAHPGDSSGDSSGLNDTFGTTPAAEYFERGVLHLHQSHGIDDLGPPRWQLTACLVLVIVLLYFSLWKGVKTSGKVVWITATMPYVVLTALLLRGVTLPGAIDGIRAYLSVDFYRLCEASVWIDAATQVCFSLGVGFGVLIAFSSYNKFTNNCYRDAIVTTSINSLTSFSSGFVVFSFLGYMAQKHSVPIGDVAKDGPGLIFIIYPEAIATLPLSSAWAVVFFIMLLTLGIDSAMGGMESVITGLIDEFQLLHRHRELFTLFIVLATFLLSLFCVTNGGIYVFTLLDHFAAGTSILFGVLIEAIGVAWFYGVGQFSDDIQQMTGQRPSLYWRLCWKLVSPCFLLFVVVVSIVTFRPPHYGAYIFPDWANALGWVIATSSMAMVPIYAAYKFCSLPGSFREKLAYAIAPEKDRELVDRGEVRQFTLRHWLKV
Sequence of Bile salt export pump (O95342 whole entry): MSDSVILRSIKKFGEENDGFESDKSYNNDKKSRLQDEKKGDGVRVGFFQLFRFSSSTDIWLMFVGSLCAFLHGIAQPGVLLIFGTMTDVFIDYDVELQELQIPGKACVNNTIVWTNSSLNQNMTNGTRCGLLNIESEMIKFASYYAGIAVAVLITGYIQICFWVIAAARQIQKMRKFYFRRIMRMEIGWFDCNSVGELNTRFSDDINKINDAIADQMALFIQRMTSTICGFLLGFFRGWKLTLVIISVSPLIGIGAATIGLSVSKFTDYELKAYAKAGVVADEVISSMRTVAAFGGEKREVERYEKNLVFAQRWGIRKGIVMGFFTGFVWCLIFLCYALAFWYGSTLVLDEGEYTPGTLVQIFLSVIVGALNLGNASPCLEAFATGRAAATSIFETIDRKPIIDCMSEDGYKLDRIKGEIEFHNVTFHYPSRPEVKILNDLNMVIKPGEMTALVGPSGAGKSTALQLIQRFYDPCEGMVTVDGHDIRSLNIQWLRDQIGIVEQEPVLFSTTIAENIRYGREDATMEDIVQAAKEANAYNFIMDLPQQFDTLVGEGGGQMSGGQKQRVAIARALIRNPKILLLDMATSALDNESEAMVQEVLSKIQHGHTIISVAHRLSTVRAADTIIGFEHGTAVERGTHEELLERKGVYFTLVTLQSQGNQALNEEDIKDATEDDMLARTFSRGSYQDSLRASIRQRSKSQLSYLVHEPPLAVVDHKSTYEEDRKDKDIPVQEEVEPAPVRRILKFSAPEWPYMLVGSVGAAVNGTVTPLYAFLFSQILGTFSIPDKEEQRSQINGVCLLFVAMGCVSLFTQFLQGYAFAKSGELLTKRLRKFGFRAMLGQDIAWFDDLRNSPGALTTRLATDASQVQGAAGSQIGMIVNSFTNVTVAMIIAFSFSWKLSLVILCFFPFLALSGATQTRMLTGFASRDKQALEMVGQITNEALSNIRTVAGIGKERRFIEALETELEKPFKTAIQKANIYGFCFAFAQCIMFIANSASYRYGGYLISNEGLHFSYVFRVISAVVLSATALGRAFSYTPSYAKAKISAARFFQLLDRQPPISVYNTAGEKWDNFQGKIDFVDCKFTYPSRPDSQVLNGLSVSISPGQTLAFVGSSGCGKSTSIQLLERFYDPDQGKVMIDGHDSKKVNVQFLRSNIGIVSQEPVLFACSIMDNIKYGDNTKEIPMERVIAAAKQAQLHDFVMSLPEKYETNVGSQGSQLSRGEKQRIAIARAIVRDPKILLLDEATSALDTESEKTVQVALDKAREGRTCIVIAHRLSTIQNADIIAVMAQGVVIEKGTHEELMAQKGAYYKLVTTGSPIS
Sequence of Sodium-dependent noradrenaline transporter (P23975 whole entry): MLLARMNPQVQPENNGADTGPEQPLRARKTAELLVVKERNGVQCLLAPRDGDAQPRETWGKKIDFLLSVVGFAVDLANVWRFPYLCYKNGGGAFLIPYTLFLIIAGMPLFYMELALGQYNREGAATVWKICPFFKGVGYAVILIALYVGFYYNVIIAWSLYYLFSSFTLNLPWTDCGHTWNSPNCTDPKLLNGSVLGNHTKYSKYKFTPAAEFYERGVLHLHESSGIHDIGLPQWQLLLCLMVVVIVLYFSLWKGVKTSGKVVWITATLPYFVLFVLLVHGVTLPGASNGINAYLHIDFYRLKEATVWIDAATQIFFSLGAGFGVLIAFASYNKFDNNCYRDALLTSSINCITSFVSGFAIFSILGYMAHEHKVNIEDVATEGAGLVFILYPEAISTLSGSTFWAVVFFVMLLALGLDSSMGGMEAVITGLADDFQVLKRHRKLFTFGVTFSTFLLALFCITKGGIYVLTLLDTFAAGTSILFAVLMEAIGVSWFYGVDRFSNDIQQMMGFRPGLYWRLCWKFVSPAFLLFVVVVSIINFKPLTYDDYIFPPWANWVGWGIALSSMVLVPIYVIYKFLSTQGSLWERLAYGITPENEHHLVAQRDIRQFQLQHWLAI
Sequence of Beta-1 adrenergic receptor (P08588 whole entry): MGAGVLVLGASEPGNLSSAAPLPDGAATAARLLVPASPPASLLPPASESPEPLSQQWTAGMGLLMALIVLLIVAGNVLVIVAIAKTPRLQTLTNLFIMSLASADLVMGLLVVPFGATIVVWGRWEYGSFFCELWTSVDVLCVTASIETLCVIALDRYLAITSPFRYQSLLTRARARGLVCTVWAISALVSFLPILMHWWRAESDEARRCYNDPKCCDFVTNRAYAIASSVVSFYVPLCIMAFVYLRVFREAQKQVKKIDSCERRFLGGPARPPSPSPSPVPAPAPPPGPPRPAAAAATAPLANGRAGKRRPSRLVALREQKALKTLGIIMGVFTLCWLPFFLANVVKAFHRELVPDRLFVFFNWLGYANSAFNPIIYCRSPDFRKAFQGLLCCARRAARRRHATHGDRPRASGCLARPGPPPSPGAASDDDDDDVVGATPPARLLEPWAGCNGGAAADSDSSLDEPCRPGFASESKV
Sequence of 5-hydroxytryptamine receptor 2B (P41595 whole entry): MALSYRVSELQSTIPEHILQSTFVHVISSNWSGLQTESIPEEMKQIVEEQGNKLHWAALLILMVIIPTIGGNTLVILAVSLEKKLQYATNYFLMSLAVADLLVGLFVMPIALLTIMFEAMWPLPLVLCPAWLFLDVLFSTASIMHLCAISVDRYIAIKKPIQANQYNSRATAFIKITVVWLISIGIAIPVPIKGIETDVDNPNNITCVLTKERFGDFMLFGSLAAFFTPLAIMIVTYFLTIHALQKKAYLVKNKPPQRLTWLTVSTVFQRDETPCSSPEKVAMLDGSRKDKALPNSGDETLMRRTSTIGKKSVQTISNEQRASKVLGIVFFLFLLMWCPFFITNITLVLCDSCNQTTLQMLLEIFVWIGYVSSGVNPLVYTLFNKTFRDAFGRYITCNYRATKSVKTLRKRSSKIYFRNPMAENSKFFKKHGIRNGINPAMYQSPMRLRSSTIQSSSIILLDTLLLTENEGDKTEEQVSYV

Compound | AC50 [1] [µM] | AC50 [2] [µM] | AC50 [3] [µM] | AC50 [4] [µM] | AC50 (Bile salt export pump) [µM] | AC50 [5] [µM] | AC50 [6] [µM] | AC50 [7] [µM] | AC50 [8] [µM] | AC50 (D(3) dopamine receptor) [µM] | AC50 [9] [µM] | AC50 [10] [µM]
Cn1nnc2c(C(N)=O)ncn2c1=O [TEMOZOLOMIDE] | > 30 | > 30 | > 30 | > 30 | > 300 | > 30 | > 30 | > 30 | > 30 | > 30 | > 30 | > 30
CNC1Cc2ccccc2N(C)c2ccccc21 (configuration not stated) [METAPRAMINE] | > 30 | 0.95 | > 30 | > 30 | > 300 | 16 | > 30 | > 30 | > 30 | > 30 | 26 | > 30
CN1C(=O)CCS(=O)(=O)C1c1ccc(Cl)cc1 (configuration not stated) [CHLORMEZANONE] | > 10 | > 10 | > 10 | > 10 | > 300 | > 10 | > 30 | > 10 | > 10 | > 30 | > 30 | > 10
c1ccc([C@H]2CN3CCSC3=N2)cc1 [LEVAMISOLE] | > 30 | > 30 | > 30 | > 30 | > 300 | > 30 | > 30 | > 30 | > 30 | > 30 | > 30 | > 30
CN(C)CCC=C1c2ccccc2C(C)(C)c2ccccc21 | > 30 | > 30 | > 1 | > 30 | 130 | 1.05 | 4.4 | 5.2 | > 30 | 1.89 | 9.67 | 0.25
CNC(=O)c1ccccc1Sc1ccc2c(/C=C/c3ccccn3)n[nH]c2c1 [AXITINIB] | 0.07 | > 30 | > 30 | > 30 | 5.4 | > 30 | > 30 | > 30 | > 30 | > 30 | > 30 | 4.2
N[C@@H]1[C@H]2CN(c3nc4c(cc3F)c(=O)c(C(=O)O)cn4-c3ccc(F)cc3F)C[C@@H]12 [TROVAFLOXACIN] | > 30 | > 30 | > 30 | > 30 | > 300 | > 30 | > 30 | > 30 | > 30 | > 30 | > 30 | > 30
CC(=O)Nc1ccc(O)cc1 [ACETAMINOPHEN] | > 30 | > 30 | > 30 | > 30 | > 300 | > 30 | > 30 | > 30 | > 30 | > 30 | > 30 | > 30
O=C(O[C@H]1C[C@H]2CC[C@@H](C1)[N+]21CCCC1)C(O)(c1ccccc1)c1ccccc1 [TROSPIUM] | > 30 | > 30 | > 30 | > 30 | > 300 | > 30 | > 30 | > 30 | > 30 | > 30 | > 30 | 0.0061
Nc1nc(NC2CC2)c2ncn([C@H]3C=C[C@@H](CO)C3)c2n1 [ABACAVIR] | > 30 | > 30 | > 30 | > 30 | > 300 | > 30 | > 30 | > 30 | > 30 | > 30 | > 30 | > 30
NCC(CC(=O)O)c1ccc(Cl)cc1 (configuration not stated) [BACLOFEN] | > 30 | > 30 | > 30 | > 30 | > 300 | > 30 | > 30 | > 30 | > 30 | > 30 | > 30 | > 30
Cc1cn([C@H]2C=C[C@@H](CO)O2)c(=O)[nH]c1=O [STAVUDINE] | > 10 | > 10 | > 10 | > 30 | > 300 | > 10 | > 10 | > 10 | > 30 | > 10 | > 10 | > 10
O=P1(NCCCl)OCCCN1CCCl (configuration not stated) [IFOSFAMIDE] | > 30 | > 30 | > 30 | > 30 | > 300 | > 30 | > 30 | > 30 | > 30 | > 30 | > 30 | > 30
CCCSc1ccc2nc(NC(=O)OC)[nH]c2c1 [ALBENDAZOLE] | > 30 | > 10 | > 10 | > 30 | > 300 | > 30 | > 30 | > 10 | > 10 | > 30 | > 10 | > 10
CN1C(C(=O)Nc2ccccn2)=C(O)c2sc(Cl)cc2S1(=O)=O [LORNOXICAM] | > 30 | > 10 | > 10 | > 30 | 32 | > 30 | > 30 | > 30 | > 30 | > 30 | > 10 | > 10
C[C@@H](O)[C@H]1C(=O)N2C(C(=O)O)=C(S[C@@H]3CN[C@H](C(=O)N(C)C)C3)[C@H](C)[C@H]12 [MEROPENEM] | > 300 | > 300 | > 300 | > 300 | > 300 | > 300 | > 300 | > 300 | > 300 | > 300 | > 300 | > 300
